Assay results published in PMC11851430, “Workflow for E3 Ligase Ligand Validation for PROTAC Development” (ACS Chemical Biology, 2025).

Key:
ITK = molecular target: T1, ITK (Homo sapiens, UniProt Q08881); assay: Western blot assay; type: cell-based; details: Jurkat cells, 6 h
T1 construct: endogenous in cells; host or cells: Jurkat
T1 sequence (Q08881 1-620): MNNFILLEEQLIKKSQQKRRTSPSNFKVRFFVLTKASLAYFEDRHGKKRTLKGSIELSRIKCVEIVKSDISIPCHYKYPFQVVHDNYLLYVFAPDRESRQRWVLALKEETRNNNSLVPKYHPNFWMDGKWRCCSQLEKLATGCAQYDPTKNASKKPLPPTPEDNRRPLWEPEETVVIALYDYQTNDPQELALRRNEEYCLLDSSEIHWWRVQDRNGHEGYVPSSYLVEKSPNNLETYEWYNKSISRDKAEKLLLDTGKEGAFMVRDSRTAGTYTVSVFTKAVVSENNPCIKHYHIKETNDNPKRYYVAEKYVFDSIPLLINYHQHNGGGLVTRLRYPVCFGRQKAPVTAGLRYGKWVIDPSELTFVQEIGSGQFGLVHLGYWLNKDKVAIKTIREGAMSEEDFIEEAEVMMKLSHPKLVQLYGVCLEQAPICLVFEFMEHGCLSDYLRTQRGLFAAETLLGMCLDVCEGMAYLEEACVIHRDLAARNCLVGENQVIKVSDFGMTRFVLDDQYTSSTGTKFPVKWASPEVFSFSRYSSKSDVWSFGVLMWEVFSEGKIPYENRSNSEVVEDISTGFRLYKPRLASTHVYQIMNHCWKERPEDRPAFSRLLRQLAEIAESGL
Method: (§1) Two mL of Jurkat cells were seeded into 6 well plates (Greiner) at a density of 5·10 5 cells/mL.
(§2) The following day, cells were treated with compounds at according concentrations or DMSO for 6 hours and then lysed with 6 M Urea at 4 °C for 20 minutes. The lysates were centrifuged for 15 minutes at 16000 g and the supernatant was collected to perform the Western-Blot.
(§3) Protein quantification was performed using nanodrop One. The SDS samples were prepared […]
(§4) The samples were separated by a BIS-TRIS polyacrylamide gel polyacrylamide gel, 100 V for 1:45) followed by transfer to PVDF membranes (Millipore) at 350 mA for 140 minutes. The membranes were blocked using 5%wt/vol BSA (in TBS-T, 20 mM Tris-HCl, pH 7.5, 150 mM NaCl and 0.1% (vol/vol) Tween 20) at room temperature for 1 hour.
(§5) The blots were incubated with respective primary antibodies at 1:1000 dilution (Cell Signaling technologies: Aurora A (D3E4Q), ITK (2F12) and GAPDH (D4C6R)) at 4 °C overnight. The blots were washed with TBS-T thrice and incubated with 1:5000 dilution of horseradish peroxidase (HRP)-labelled respective secondary antibodies (Cell Signaling technologies, Anti- […]
(§6) The blots were washed with TBS-T thrice and then incubated with chemiluminescent HRP substrate (Bio-Rad) for 2 minutes. The blots were imaged and the signals were detected using the Amersham ImageQuant 800 (Cytiva).
(§7) Cell culture. Human MV4-11 ([…]) and human Jurkat ([…]) cells were cultured in RPMI- […]
(§8) °C in 5% CO2. Both media were supplemented with 10% FBS and 1% penicillin/streptomycin. […]

AAK1 = molecular target: T2, AAK1 (Homo sapiens, UniProt Q2M2I8); assay: Kinobeads selectivity profiling; type: binding; details: Jurkat lysate, dose series given in nM, read-out: Kd (apparent dissociation constant, corrected for protein depletion)
T2 construct: endogenous in cells; host or cells: Jurkat (Clone E6.1) cell lysate
T2 sequence (Q2M2I8 whole entry): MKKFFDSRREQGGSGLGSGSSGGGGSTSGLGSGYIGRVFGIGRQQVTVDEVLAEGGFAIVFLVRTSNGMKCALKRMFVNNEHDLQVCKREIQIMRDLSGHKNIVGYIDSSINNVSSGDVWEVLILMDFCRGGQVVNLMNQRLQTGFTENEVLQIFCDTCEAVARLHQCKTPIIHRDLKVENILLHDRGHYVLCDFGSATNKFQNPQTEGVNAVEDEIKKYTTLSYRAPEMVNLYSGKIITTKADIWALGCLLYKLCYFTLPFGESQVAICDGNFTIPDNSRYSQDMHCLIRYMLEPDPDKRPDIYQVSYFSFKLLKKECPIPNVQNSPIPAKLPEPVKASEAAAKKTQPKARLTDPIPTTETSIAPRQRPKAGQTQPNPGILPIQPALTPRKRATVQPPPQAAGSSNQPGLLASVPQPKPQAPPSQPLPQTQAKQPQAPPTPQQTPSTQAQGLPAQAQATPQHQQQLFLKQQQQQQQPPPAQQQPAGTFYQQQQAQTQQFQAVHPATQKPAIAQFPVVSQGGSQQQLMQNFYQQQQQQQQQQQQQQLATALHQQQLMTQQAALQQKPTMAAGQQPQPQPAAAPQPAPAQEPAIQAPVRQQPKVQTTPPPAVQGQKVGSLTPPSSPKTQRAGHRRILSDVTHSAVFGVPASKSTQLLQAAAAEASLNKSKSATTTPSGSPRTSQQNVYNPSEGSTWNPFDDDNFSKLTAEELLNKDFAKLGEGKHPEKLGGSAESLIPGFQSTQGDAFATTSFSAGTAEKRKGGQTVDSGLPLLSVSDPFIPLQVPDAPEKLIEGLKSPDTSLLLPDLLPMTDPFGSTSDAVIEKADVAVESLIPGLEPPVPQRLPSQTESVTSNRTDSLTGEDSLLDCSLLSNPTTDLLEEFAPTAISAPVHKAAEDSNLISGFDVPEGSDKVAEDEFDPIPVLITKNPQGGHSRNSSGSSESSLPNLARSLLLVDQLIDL
Method: (§9) Excitation and emission filters […]
(§10) curve. […] Measurements were
(§11) Kinobeads selectivity profiling of PROTACs
(§12) (Multiplexion, Heidelberg, Germany).
(§13) The cell lysate was ultracentrifuged and diluted
(§14) NaF, 1 mM DTT, protease inhibitors and phosphatase inhibitors to a final concentration of 5 mg/ml as determined by Bradford assay. For selectivity profiling of compounds the cell lysate (2.5 mg of total proteins per pulldown) was pre-incubated with increasing compound […]
(§15) µM) for 45 min at 4 °C in an end-over-end shaker. Subsequently, lysates were incubated with Kinobeads epsilon (17 µL settled beads) for 30 min at 4 °C. To assess the degree of protein depletion from the lysates by Kinobeads, the flow-through of the DMSO control was recovered […]
(§16) for a pulldown of pulldown experiment where the lysate was incubated a second time with fresh Kinobeads. Beads were washed in 3 steps with buffer containing 0.4%, 0.2% and no NP40.
(§17) Bound proteins were reduced with 50 mM DTT in 8 M Urea, 40 mM Tris-HCl pH 7.4 for 30 min at room temperature. After alkylation with 55 mM chloroacetamide (CAA), the Urea concentration was reduced to 1 – 2 M and proteins were digested using trypsin. Acidified peptides were desalted and concentrated using SepPak tC18 µEluation plates (Waters).
(§18) Samples were frozen, dried by vacuum centrifugation and stored at -20 °C.
(§19) LC-MS2 analysis. Peptides were measured on a Dionex Ultimate3000 nano HPLC coupled online to an Orbitrap Fusion Lumos (Thermo Fisher Scientific) mass spectrometer.
(§20) Peptides were dissolved in 0.1% formic acid and delivered to a trap column (ReproSil-pur C18-AQ, 5 μm, Dr. Maisch, 20 mm × 75 μm, self-packed) at a flow rate of 5 μL/min in LC solvent A (0.1 % formic acid).4 After 10 min of loading, peptides were transferred to an analytical column (ReproSil Gold C18-AQ, 3 μm, Dr. Maisch, 400 mm × 75 μm, self-packed) and separated using […]
(§21) acetonitrile) in LC solvent A.
(§22) The Orbitrap Fusion Lumos was operated as follows: positive polarity; spray voltage 2.1 kV, […]
(§23) A full-scan (MS1) was recorded from 360 to 1300 m/z with a resolution of 60,000 in the Orbitrap in profile mode. The MS1 AGC target was set to 4e5 and the maxIT was set to 50 ms, RF lens value was set to 50%. Based on the full scans, precursors were targeted for the MS/MS scans […]
(§24) intensity exceeded 2.5e4. The dynamic exclusion was set to 30 sec and exclude isotopes was switched on. The MS2 quadrupole isolation window was set to 1.7 m/z. Peptide fragmentation occurred in the ion routing multipole (IRM) by HCD with a fixed collision energy mode, the […]

ABL1 = molecular target: T3, ABL1 (Homo sapiens, UniProt P00519); assay: Kinobeads selectivity profiling; type: binding; details: Jurkat lysate, dose series given in nM, read-out: Kd (apparent dissociation constant, corrected for protein depletion)
T3 construct: endogenous in cells; host or cells: Jurkat (Clone E6.1) cell lysate
T3 sequence (P00519 whole entry): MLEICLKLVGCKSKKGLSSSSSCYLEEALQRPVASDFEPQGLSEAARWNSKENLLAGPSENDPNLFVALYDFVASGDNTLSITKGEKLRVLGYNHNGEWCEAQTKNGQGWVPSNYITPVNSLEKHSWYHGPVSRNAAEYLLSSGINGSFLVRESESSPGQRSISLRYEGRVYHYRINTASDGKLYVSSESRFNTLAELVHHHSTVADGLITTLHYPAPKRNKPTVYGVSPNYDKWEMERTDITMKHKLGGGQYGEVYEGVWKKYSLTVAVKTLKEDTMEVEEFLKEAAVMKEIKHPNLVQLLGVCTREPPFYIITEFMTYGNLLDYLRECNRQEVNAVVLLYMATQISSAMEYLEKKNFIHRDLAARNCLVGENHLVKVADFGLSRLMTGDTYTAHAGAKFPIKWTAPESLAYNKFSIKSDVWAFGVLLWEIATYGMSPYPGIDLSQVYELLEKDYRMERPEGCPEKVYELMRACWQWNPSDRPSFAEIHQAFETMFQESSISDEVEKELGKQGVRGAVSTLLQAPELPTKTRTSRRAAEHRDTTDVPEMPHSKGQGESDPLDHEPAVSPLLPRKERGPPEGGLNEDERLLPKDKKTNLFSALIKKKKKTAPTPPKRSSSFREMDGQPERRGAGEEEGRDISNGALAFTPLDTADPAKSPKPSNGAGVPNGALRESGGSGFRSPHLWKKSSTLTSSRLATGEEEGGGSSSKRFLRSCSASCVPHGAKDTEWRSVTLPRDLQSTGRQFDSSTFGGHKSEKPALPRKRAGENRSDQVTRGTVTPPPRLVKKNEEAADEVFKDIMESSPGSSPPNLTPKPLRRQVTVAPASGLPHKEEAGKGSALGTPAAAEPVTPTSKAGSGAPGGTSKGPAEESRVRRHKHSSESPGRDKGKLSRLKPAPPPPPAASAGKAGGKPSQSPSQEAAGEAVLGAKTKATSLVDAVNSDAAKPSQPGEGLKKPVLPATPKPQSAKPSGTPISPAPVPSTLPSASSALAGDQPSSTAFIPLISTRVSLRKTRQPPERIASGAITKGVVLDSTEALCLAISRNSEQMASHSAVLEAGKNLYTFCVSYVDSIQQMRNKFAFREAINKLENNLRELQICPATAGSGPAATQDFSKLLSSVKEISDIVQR
Method: as §9, §10, §11, §12, §13, §14, §15, §16, §17, §18, §19, §20, §21, §22, §23, §24

Jurkat cells = assay: CellTiterGlo cell viability assay; type: cell-based, human; details: Homo sapiens, 24 h, mean of triplicates, ^b/^c values estimated, read-out: IC50±sd/μM (cell viability)
Method: The effects of the compounds on cell viability was determined using the CellTiter-Glo® 2.0 Cell Viability Assay (Promega: G9241) following manufacturer’s protocol. Ten µL of Jurkat cells at […]
After equilibration, PROTACs were titrated at various concentrations using an Echo acoustic […]
volume of CellTiter-Glo® 2.0 reagent (10 µL) was added to each well and cells were incubated for 10 minutes at room temperature. Filtered luminescence was measured on a PHERAstar plate reader (BMG Labtech) and data was evaluated using GraphPad Prism 9 software employing a normalized curve it with the following equation: Y=Bottom + (Top-Bottom)/(1+10(LogEC50-X) *HillSlope).
Sample preparation. Jurkat cells (ATCC © HTB-22) were cultured in RPMI (Thermo: […]

full-length AAK1 = full-length AAK1 (Homo sapiens, UniProt Q2M2I8); assay: NanoBRET target engagement assay, intact and permeabilized cells; details: NanoBRET, mean of duplicates
Chain of full-length AAK1 (Q2M2I8 whole entry): as the sequence (Q2M2I8 whole entry) above

AURKA = molecular target: T4, AURKA (Homo sapiens, UniProt O14965); assay: Western blot assay; type: cell-based; design: endogenous in cells; host or cells: Jurkat; details: Jurkat cells, 6 h
T4 sequence (O14965 1-403): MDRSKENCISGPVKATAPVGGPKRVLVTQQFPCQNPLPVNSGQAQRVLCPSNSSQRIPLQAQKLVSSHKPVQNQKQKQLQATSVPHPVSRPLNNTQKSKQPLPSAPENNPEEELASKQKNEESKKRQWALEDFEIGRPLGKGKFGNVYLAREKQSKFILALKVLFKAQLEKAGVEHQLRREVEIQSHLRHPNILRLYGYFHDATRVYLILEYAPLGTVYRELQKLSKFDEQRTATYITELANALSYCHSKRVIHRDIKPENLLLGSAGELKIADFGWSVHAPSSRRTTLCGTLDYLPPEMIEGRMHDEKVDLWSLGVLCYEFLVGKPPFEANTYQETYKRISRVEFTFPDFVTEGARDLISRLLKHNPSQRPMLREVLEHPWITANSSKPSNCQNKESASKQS
Method: as §1, §2, §3, §4, §5, §6, §7, §8

[1] = AAK1 intact (IC50±sd)/μM, intact cells, ^a values estimated by extrapolation
[2] = AAK1 permeabilized (IC50±sd)/μM, permeabilized cells

COc1cc(C)c(Sc2cnc(NC(=O)c3ccc(N4CCN(CCCCCCCNC(=O)COc5cccc6c5C(=O)N(C5CCC(=O)NC5=O)C6=O)CC4)cc3)s2)cc1C(=O)N1CCN(C(C)=O)CC1 (centres unmarked) [BSJ-05–037, reference compound]
ITK protein levels (Western blot) (ITK): only weak degradation of ITK

NC(=O)c1ccccc1Nc1nc(Nc2ccc(N3CCNCC3)cc2)ncc1Cl [compound 6]
Kd (AAK1): 6.4 nM | Kd (ABL1): 420 nM | IC50 (Jurkat cells): 0.7 ± 0.2 µM | IC50 (full-length AAK1; [1]): 0.004 ± 0.001 µM | IC50 (full-length AAK1; [2]): 0.004 µM

CC(C)(C)OC(=O)N1CCN(c2cc(Nc3cc(C4CC4)[nH]n3)nc(Nc3ccc(CC#N)cc3)n2)CC1 [compound 4]
Kd (AAK1): 29.4 nM | Kd (ABL1): 2970 nM | IC50 (full-length AAK1; [1]): 0.005 µM | IC50 (full-length AAK1; [2]): 0.003 µM

O=C(COc1cccc2c1C(=O)N(C1CCC(=O)NC1=O)C2=O)NCCOCCOCCNC(=O)C1(Cc2cccc(Nc3nccs3)n2)CCC(Oc2cccc(Cl)c2F)CC1 (centres unmarked) [JB300, reference compound]
AURKA protein levels (Western blot) (AURKA): strong degradation
